We go through 2 compounds from US6451332B1, “Pesticidal composition having high pesticidal ingredient vaporization rate method for controlling pests, and method for producing a pesticidal composition” (Sumitomo Chemical Company, Limited, priority 1997, dated 2002).

The nature of data set [1]: Vaporization rate of the pesticidal ingredient (silica gel trap, acetone extraction, gas chromatography). Format: physicochemical. The settings on record: 10 g composition heated with 100 g calcium oxide and water; air sucked at 30 L/min for 5 min. The method, then:
Pesticidal devices were prepared in the same method as test examples 5 and 8, and had water poured to the calcium oxide. After the reaction of calcium oxide with water started, the pesticidal device was replaced to a glass funnel with a lid. The vaporizing pesticidal ingredient was then trapped to silica gel in glass column connected to the funnel by sucking air at 30 L/min for 5 m in. Subsequently, the pesticidal ingredient present in the silica gel was extracted with acetone. The vaporization rate for the pesticidal ingredient was then measured by the quantitative analysis of gas chromatography.
A pesticidal device was prepared by placing:
1) 10 g of the pesticidal composition obtained in example 2 was placed interior to the separating wall of the container presented in FIG. 1 and
2) 100 g of calcium oxide with 1-20 mesh was placed exterior to the said separating wall but within the said container. The acquired pesticidal device was then tested for the vaporization rate by utilizing the procedure recited in test example 10.

For data set [2] the following is noted: Japanese Laid-open patent No. sho-53-109945A, table 2, sample #23; cited from earlier work.

With `COC(=O)c1cc(Cl)ccc1NS(=O)(=O)C(F)(F)F` [2-methoxycarbonyl-4-chlorotrifluoromethanesulfonanilide], the “vaporization rate for the pesticidal ingredient” value in data set [1] came to 78.5%.
In the case of `CC(C)=CC1C(C(=O)OCN2C(=O)C3=C(CCCC3)C2=O)C1(C)C` (stereo not drawn) [tetramethrin], the “vaporization rate for the pesticidal ingredient” value in data set [1] stood at 88.1%. In data set [2], the vaporization rate is reported as 63.0%.
